Experimental data: PubChem BioAssay AID449762 (Southern Research Specialized Biocontainment Screening …, 2010)
Inconclusive results are not listed.

Tested on: M. tuberculosis H37Rv growth inhibition, 7H9 media
Assay: M. tuberculosis growth inhibition, HTS (AID 449762);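 further: bacterial growth assessed after seven days of incubation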
Conditions: for IC90: measured here: IC90 growth inhibition

Row | Structure (SMILES) | IC50 [µM] | IC90 [µM]
1 | COc1ccc(C2CC(c3cccs3)=Nc3ccccc3S2)cc1 (configuration not stated) | 30.1 | 44
2 | CC(C)(O)[C@H]1O[C@H]2CC[C@@]3(C)[C@@](O)(CC[C@H]4Cc5c([nH]c6ccccc56)[C@@]43C)C2=CC1=O | 42.2 | 63.9
3 | CN(C)CCOc1ccc(-c2c(-c3ccsc3)sc3ccccc23)cc1 | 13.2 | 15.5
4 | CC(NCCCOc1cccc2ccccc12)c1ccccc1 (configuration not stated) | 22.6 | 31.3
5 | Nc1ccc(N=Nc2ccccc2)c2cccnc12 | 10.9 | 49.5
6 | CCOC(=O)C1CCN(C(=O)CSCc2nc(-c3ccc(OCC)cc3)oc2C)CC1 | 42.9 | 48.1
7 | CC(=O)C1=C(C)NC(SCC(=O)c2ccc(F)cc2)=C(C#N)C1c1ccco1 (configuration not stated) | 46.1 | 51
8 | COc1cc(NC(=O)c2cnc(N)s2)cc(C(=O)Nc2cccc(C(F)(F)F)c2)c1 | 52 | 78.8
9 | Cc1nonc1OCCNCCNc1ccc([N+](=O)[O-])c2cccnc12 | 6.68 | 13.9
10 | COc1cccc(NC(=S)/C(=C(\[O-])c2cc(C)n(-c3ccccc3F)c2C)[n+]2ccc(N(C)C)cc2)c1 | 55.9 | 70.9
11 | Cc1cc(C)n(-c2nc(NCCN(C)C)c3c4c(sc3n2)CCCC4)n1 | 14.6 | 18.6
12 | COc1ccc(N(CC(=O)Nc2ccccc2C(N)=O)S(=O)(=O)c2ccc(C)c([N+](=O)[O-])c2)cc1 | 87.7 | > 100
13 | COc1ccc(N=c2ssnc2Cl)cc1 | 38.9 | > 100
14 | Cc1ncc(C23CC4CC(CC(C4)C2)C3)[nH]1 | 49.9 | 51.5
15 | O=C(Nc1ncc(Cc2ccccc2Cl)s1)C1=NCCN1 | 0.43 | 92.9
16 | Nc1nonc1C(=O)NCCNCc1c(OCc2ccccc2F)ccc2ccccc12 | 39.8 | 50.5
17 | CN(c1ccccc1)c1ccc(/C=C/[N+](=O)[O-])cc1 | 8.97 | 16.9
18 | O=c1[nH]c(=O)n(C2CCCO2)cc1F (configuration not stated) | 29 | 55.3
19 | O=C(CCl)NCCCCCCCCCNC(=O)CCl | < 0.2 | < 0.2
20 | CON(C)c1nc(C2CCCCC2)c2cc(C)ccc2n1 | 60.1 | 75.5
21 | O=C(NCCCN1CCOCC1)c1cc2c([nH]c3ccccc32)c(-c2cccc(Br)c2)n1 | 10.4 | 13.4
22 | N#Cc1c([N+](=O)[O-])cc([N+](=O)[O-])cc1S(=O)(=O)Cc1ccccc1 | 15.3 | 22.6
23 | CCCNC(=O)NC(=O)COc1ccc2oc3ccccc3c2c1 |  | > 100

Row | Structure (SMILES) | IC50 [µM] | IC90 [µM]
24 | COc1cccc2sc(Nc3nnc(-c4cccs4)o3)nc12 | 23.9 | 27.1
25 | CCc1cc(OCCCCNCc2ccccc2)ccc1Cl | 26.3 | 30.4
26 | CCOC(=O)CSc1nnc(NC(=O)c2ccc3c(c2)OCO3)s1 | 5.67 | 42.3
27 | O=C(CN1CCC(n2nnc3cc(C(F)(F)F)ccc32)CC1)NCc1cccs1 | 37.5 | 47.8
28 | Cc1ccc2c(c1)c1c3n2CCN=C3CCC1 | 10.3 | 19
29 | O=C(NC(=S)Nc1cccc2cccnc12)c1ccccc1 | 14.7 | > 100
30 | CC1CCCC(C)N1C(=O)COC(=O)c1cc(-c2cccs2)nn1-c1ccccc1 (configuration not stated) | 24.5 | 55.6
31 | CCCn1c(N2CCN(Cc3ccc(Cl)cc3)CC2)nc2ccccc21 | 11.3 | 23.5
32 | C=CCOc1ccc(/C=C/C(=O)OCC(=O)NCC2CCCO2)cc1 (configuration not stated) | 98.7 | > 100
33 | O=c1c2c(nc3nc(NCc4ccc(Cl)cc4)[nH]n13)CCC2 | 6.28 | 7.32
34 | C=CCOc1ccc2c(c1)C(=NO)c1cc(OCC=C)ccc1-2 | 5.82 | 9.27
35 | CCOC(=O)CSc1nsc(SCC(=O)OCC)c1C#N | 11.9 | 13.6
36 | CC1=NN(C(N)=S)C(=O)C1N=Nc1ccc(C)c(Br)c1 (configuration not stated) | 11.5 | 19.1
37 | O=C1/C(=C\c2ccncc2)CCc2ccccc21 | 20.8 | 34.8
38 | O=C(N/N=C(\c1ccccc1)c1ccccn1)c1ccccc1Cl | 3.65 | 22.1
39 | CN(C(=S)NC(=O)c1ccc(Cl)cc1)C1CCCCC1 | 3.1 | 13.7
40 | COc1ccc(-c2ccc(C#N)c(SCC(=O)OCc3ccccc3)n2)cc1OC | 20.1 | 69.5
41 | COC(=O)COc1ccc(-c2nn(C)c(=O)c3ccccc23)cc1 | 1.77 | 27.5
42 | Cc1ccc2c(c1)c(C1=c3ccccc3=NC1=O)c(O)n2C | 1.17 | 3.07
43 | O=C(N/N=C/c1cccc2cccnc12)[C@H]1C[C@@H]1c1ccccc1 | 18.6 | 34.7
44 | CCN1C(=NCCc2ccc(Br)cc2)N[C@@H](c2ccccc2)[C@H](C(=O)OC)[C@H]1C | 16.7 | 22.1
45 | O=C(N[C@H]1CCC(=O)N(CCSc2ccc(Br)cc2)CC1)OCc1ccccc1 | 23.3 | 28.6
46 | O=C(NNc1nc2ccccc2s1)c1ccccc1F | 22.2 | > 100

Row | Structure (SMILES) | IC50 [µM] | IC90 [µM]
47 | COc1cc(/C=N/n2c(-c3ccc4c(c3)NC(=O)CO4)csc2=Nc2cccc(C)c2)ccc1O | 34 | > 100
48 | Cn1c(NC(=S)Nc2ccccc2)nc2ccccc21 | 3.71 | 6.27
49 | CC(=O)c1c(N2CCCC2)[nH]c(-c2ccccc2)nc1=S | 16.2 | 67.1
50 | CCc1cc(C(=O)NNC(=O)CCl)sc1C | 2.55 | 4.62
51 | C/C(=N\N=C(/N)SC1CC(=O)N(c2ccc(Cl)cc2)C1=O)c1cccs1 (configuration not stated) | 33 | > 100
52 | O=c1oc(-c2cccs2)nc2c1cnn2-c1ccccc1 | 64.5 | > 100
53 | Nc1ccccc1C#CC(=O)c1ccccc1 | 1.11 | 43.1
54 | S=C(NN=C1CCN(Cc2ccccc2)CC1)NC1CCCCC1 | 16.7 | 25.3
55 | COc1ccc(C(=O)OCC(=O)c2ccc(Br)s2)c(OC)c1 | 26 | > 100
56 | CC1(C)Cc2c(sc(NC(=O)c3ccc(C(=O)c4ccccc4)cc3)c2C(N)=O)C(C)(C)N1 | 22.5 | > 100
57 | Cc1ccc(C(=O)CC(SCC(=O)O)c2ccc([N+](=O)[O-])cc2)cc1 (configuration not stated) | 5.78 | 6.72
58 | CCC(C)N1CCC2(CC1)N=c1c(c3c4c5c(C)c(O)c3c(O)c1=NC(=O)C(C)=CC=C[C@H](C)[C@H](O)[C@@H](C)[C@@H](O)[C@@H](C)[C@H](OC(C)=O)[C@H](C)[C@@H](OC)C=CO[C@@](C)(O5)C4=O)N2 (some centres not stated) | < 0.2 | < 0.2
59 | CC(C)CNc1nnnc2c1sc1nc(N3CCOCC3)c3c(c12)CC(C)(C)SC3 | 74 | > 100
60 | O=C(CCN1C(=O)/C(=C/c2ccccc2Cl)SC1=S)N1CCCC1 | 9.76 | > 25
61 | O=c1cc(N=Nc2ccc(Cl)cc2)[nH]c(=O)[nH]1 | 42 | > 100
62 | COc1ccccc1NC(=O)Nc1nc(CC(=O)N2CCN(c3ccccc3F)CC2)cs1 | 41.7 | > 100
63 | Cc1ccc(CN2CC(C(=O)OCc3ccccc3Cl)CC2=O)cc1 (configuration not stated) | 4.66 | 28.7
64 | CCCCCCC[N+](CC)(CC)CCCCc1ccc(Cl)cc1 | 24.7 | 27.8
65 | COc1cc(N=Nc2ccc3ccccc3c2)ccc1O | 37.8 | 63.1
66 | COc1ccc(C(=O)/C=C/c2cc(OC)c(O)c(OC)c2)c(F)c1 | 34.6 | 67
67 | Cc1ccc(-c2cc(-c3ccccc3C)[nH]n2)c(O)c1 | 22.2 | > 100
68 | Cc1cc(=O)n2cccc(O)c2n1 | 5.94 | 15.6
69 | Cc1nc2ccc(OC(=O)c3ccccc3)cc2s1 | 66 | 86

Row | Structure (SMILES) | IC50 [µM] | IC90 [µM]
70 | CCOc1ccc(-c2cc(C(=O)NCCCn3ccnc3)c3cc(Br)ccc3n2)cc1 | 24.1 | 27.4
71 | O=C(NCC1CCN(c2ccc(S(=O)(=O)N3CCOCC3)cc2)CC1)c1ccc(Cl)cc1 | 31.9 | 51.8
72 | O=C(Nc1cccnc1Cl)c1cc(-c2ccco2)on1 | 41.4 | > 100
73 | O=C1NN(c2ccc(Br)cc2)C(=O)/C1=C\c1ccc(O)cc1O | 88.2 | > 100
74 | CCc1ccc(CCOc2ccc(CC3SC(=O)NC3=O)cc2)nc1 (configuration not stated) | 23.3 | > 25
75 | CC(C)Cn1c(N2CCN(C(=O)/C=C/c3ccccc3)CC2)nc2ccccc21 | 23.7 | 27.2
76 | CCOc1ccc(-c2cc(CCCC(=O)NCCC(C)C)no2)cc1 | 6.53 | 14.3
77 | COC(=O)CSc1[nH]c2ccc(Br)cc2c1[N+](=O)[O-] | 5.64 | 9.31
78 | CCCCCC(=O)Nc1cccc2ccccc12 | 14.1 | > 100
79 | Cc1ccc(F)cc1CNC(=O)c1cc(COc2ccc3ncccc3c2)on1 | 29.2 | > 100
80 | CC1(c2ccc(OC(F)F)cc2)NC(=O)N(CC(=O)c2ccc3c(c2)OCO3)C1=O (configuration not stated) | 23.6 | 32.2
81 | CCOc1ccc(-n2c(O)c(/C=N/Nc3nnc(C)c(=O)[nH]3)c3ccccc3c2=O)cc1 | 11.3 | > 100
82 | C/C(=N\NC(=O)c1ccc(O)cc1)c1ccc2c(c1)Nc1ccccc1S2 | 24.8 | 62.8
83 | COc1cc(/C=C(\C#N)c2nc3c(s2)CC(C)CC3)ccc1O (configuration not stated) | 31.5 | 63.5
84 | Cc1onc(-c2c(F)cccc2Cl)c1C(=O)O/N=C(\N)c1ccc([N+](=O)[O-])o1 | 5.3 | 11
85 | CCOC(=O)c1ccc(N=C2S/C(=C\c3cc(C)n(-c4cccnc4)c3C)C(=O)N2C)cc1 | 96.6 | > 100
86 | O=C(c1cccc([N+](=O)[O-])c1)N1CCN(c2ccc(N3CCOCC3)nn2)CC1 | 19.7 | 26.6
87 | CN(C)CCNc1ncnc2c1sc1nc(-c3ccccc3)c3c(c12)CCCC3 | 17.7 | 20.7
88 | Cn1c(CNc2nc(-c3ccccc3)cs2)nnc1SCC(=O)OC1CCCCC1 | 11.6 | 24.2
89 | CC1(C)c2cc(Cl)ccc2-n2c1cc(O)c(-c1ccccc1)c2=O | 4.43 | 10.8
